What was measured:
Type in all cases: binding
FITC-E2 scFv VH W118G [1] = assay: SPR inhibition in solution assay
FITC-E2 scFv (wild-type) = assay: fluorescein fluorescence quenching, titration of purified scFv
FITC-E2 scFv VH W118G [2] = assay: dose-dependent rescue of fluorescein quenching

Structure (SMILES) | IC50 (FITC-E2 scFv VH W118G [1]) | EC50 (FITC-E2 scFv (wild-type)) | EC50 (FITC-E2 scFv VH W118G [2])
O=C1OC2(c3ccc(O)cc3Oc3cc(O)ccc32)c2ccccc21 [fluorescein] | 296 nM | 23 to 27 nM | –
c1ccc2[nH]ccc2c1 [indole] | – | – | 220000 nM

Source: PMC5910032 (ACS synthetic biology, 2018)
